Active and inactive are the calls of the source. The rule behind the calls is not given here.
Key:
Bel-7402 [1] = experiment: Induction of apoptosis in human Bel-7402 cells assessed as viable cells at 2.5 uM incubated for 24 hrs in presence of U0126 by Annexin V and Dead cell kit assay (reference value: 90.82 %); format: functional; conditions: read-out: Activity
Bel-7402 [2] = experiment: Cytotoxicity against human Bel-7402 cells assessed as increase LDH release at 2.5 to 5 uM by LDH assay; format: functional, cell-based; conditions: dose 2.5-5 µM, time 24-48 hrs, TDE = time-dependent effect
Bel-7402 [3] = experiment: Induction of AKT degradation in human Bel-7402 cells at 2.5 uM incubated for 24 hrs in presence of chloroquine by Western blot analysis; format: cell-based
[4] = MRT (0 to t) in Sprague-Dawley rat at 20 mg/kg, ip measured for 0.03 to 24 hrs by UPLC-MS analysis; format: ADME, organism-based; conditions: in vivo, time 0.03-24 hrs
Bel-7402 [5] = experiment: Induction of apoptosis in human Bel-7402 cells assessed as early apoptotic cells at 2.5 uM incubated for 24 hrs by Annexin V and dead cell assay kit (reference value: 3.75 %); format: functional
[6] = Sub-chronic toxicity in ICR mouse assessed as body weight change at 100 mg/kg/day, ip for 26 days; format: organism-based; conditions: in vivo, 624 h, time 26 day
Bel-7402 [7] = experiment: Upregulation of total protein ubiquitination level in human Bel-7402 cells by Western blot analysis; format: functional, cell-based; conditions: dose <= 10.0 µM, DDE = dose-dependent effect
[8] = Acute toxicity in ICR mouse assessed as behavioural change at 100 to 500 mg/kg, ip; format: organism-based; conditions: in vivo, dose 100-500 mg/kg
[9] = Cytotoxicity against human HepG2 cells assessed as reduction in cell viability incubated for 72 hrs by MTT assay; format: toxicity, cell-based
Bel-7402 [10] = experiment: Induction of caspase dependent apoptosis in human Bel-7402 cells assessed as reduction in cell proliferation inhibition upto 10 uM incubated for 24 hrs in presence of Z-vad-fmk by MTT assay; format: functional, cell-based
[11] = Chronic toxicity in ICR mouse assessed as effect on liver morphology at 100 mg/kg, ip qd measured after 26 days by H and E staining method; format: organism-based; conditions: in vivo, 624 h, time 26 day
Bel-7402 [12] = experiment: Cytotoxicity against human Bel-7402 cells assessed as inhibition rate at 5 uM by MTT assay; format: functional, cell-based; conditions: time 72.0 hrs, TDE = time-dependent effect
Bel-7402 [13] = experiment: Disruption of mitochondrial membrane potential in human Bel-7402 cells incubated for 24 hrs by Rho-123 staining based flow cytometry analysis; format: functional, cell-based; conditions: dose <= 5.0 µM, DDE = dose-dependent effect
Bel-7402 [14] = experiment: Induction of apoptosis in human Bel-7402 cells assessed as late apoptotic cells at 0.625 uM incubated for 24 hrs by Annexin V and dead cell assay kit (reference value: 4.45 %); format: functional
[15] = Biodistribution in tumor of mouse bearing tumor measured after 4 hr by ICG dye based fluorescence imaging; format: ADME, organism-based, Neoplasm; conditions: in vivo
Bel-7402 [16] = experiment: Induction of apoptosis in human Bel-7402 cells assessed as late apoptotic cells at 1.25 uM incubated for 24 hrs by Annexin V and dead cell assay kit (reference value: 4.45 %); format: functional
[17] = Sub-chronic toxicity in ICR mouse assessed as behavioural change at 100 mg/kg/day, ip for 26 days; format: organism-based; conditions: in vivo, 624 h, time 26 day
Bel-7402 [18] = experiment: Induction of apoptosis in human Bel-7402 cells assessed as late apoptotic cells at 2.5 uM incubated for 24 hrs in presence of U0126 by Annexin V and Dead cell kit assay (reference value: 3.85 %); format: functional
Bel-7402 [19] = experiment: Induction of apoptosis in human Bel-7402 cells assessed as necrotic cells at 2.5 uM incubated for 24 hrs in presence of U0126 by Annexin V and Dead cell kit assay (reference value: 1.6 %); format: functional
[20] = Acute toxicity in ICR mouse assessed as body weight change at 100 to 500 mg/kg, ip; format: organism-based; conditions: in vivo, dose 100-500 mg/kg
[21] = Toxicity in ICR mouse assessed as change in mean corpuscular volume at 100 mg/kg, ip qd (reference value: 51.3 fL); format: organism-based; conditions: in vivo
Bel-7402 [22] = experiment: Cytotoxicity against human Bel-7402 cells assessed as reduction in cell viability incubated for 72 hrs by MTT assay; format: functional, cell-based; conditions: Bel-7402, 72 h
Bel-7402 [23] = experiment: Induction of ERK degradation in human Bel-7402 cells at 2.5 uM incubated for 24 hrs in presence of Z-vad-fmk by Western blot analysis; format: cell-based
Bel-7402 [24] = experiment: Induction of apoptosis in human Bel-7402 cells assessed as early apoptotic cells at 5 uM incubated for 24 hrs by Annexin V and dead cell assay kit (reference value: 3.75 %); format: functional
[25] = Chronic toxicity in ICR mouse assessed as effect on spleen morphology at 100 mg/kg, ip qd measured after 26 days by H and E staining method; format: organism-based; conditions: in vivo, 624 h, time 26 day
Bel-7402 [26] = experiment: Effect on AKT signalling pathway in human Bel-7402 cells assessed as decrease in phosphorylated-AKT level upto 2.5 uM incubated for 24 hrs by Western blot analysis; format: functional, cell-based

CC[C@H](C)/C=C(C)/C=C/C1=CC2=C(Cl)C(=O)[C@](C)(O)C(=O)C2=CN1Cc1ccc(OC(F)(F)F)cc1
viability at 2.5 µM (Bel-7402 [1]): 29.2% | Activity (Bel-7402 [2]): Tde | Activity (Bel-7402 [3]): Active | MRT last [4]: 4.46 h | Activity (Bel-7402 [5]): 16.55% | Activity [6]: Non-Toxic | Activity (Bel-7402 [7]): Dde | Activity [8]: Non-Toxic | IC50 at 72 h [9]: 2820 nM | Activity (Bel-7402 [10]): Active | Activity [11]: Non-Toxic | Activity (Bel-7402 [12]): Tde | Activity (Bel-7402 [13]): Dde | Activity (Bel-7402 [14]): 3.1% | Activity [15]: Active | Activity (Bel-7402 [16]): 5.75% | Activity [17]: Non-Toxic | Activity (Bel-7402 [18]): 36.9% | Activity (Bel-7402 [19]): 7.75% | Activity [20]: Non-Toxic | Activity [21]: 55 fL | IC50 (Bel-7402 [22]): 1150 nM | Activity (Bel-7402 [23]): Active | Activity (Bel-7402 [24]): 8.1% | Activity [25]: Non-Toxic | Activity (Bel-7402 [26]): Active

— ChEMBL document CHEMBL5154737, “Semisynthesis and biological evaluation of (+)-sclerotiorin derivatives as antitumor agents for the treatment of hepatocellular carcinoma” (Eur J Med Chem, 2022)
